Target: hNOX enzymes
Assay: ROS production measurement on hNOX membranes (Amplex Red fluorescence assay, assay 1)
Type: biochemical, human
Details: membranes from CHO or HEK cells overexpressing hNox enzymes; Nox isoform not stated; non linear regression; read-out: Nox inhibitory constant Ki
Description: Reactive oxygen species (ROS) production generated by hNOX enzymes was measured by fluorescence in both cellular and membrane-based assays using the Amplex® Red reagent. In the presence of horseradish peroxidase (HRP), the Amplex® Red reagent (10-acetyl-3,7-dihydroxyphenoxazine, AR), which is a colorless and nonfluorescent derivative of dihydroresorufin, reacts with H2O2 with a 1:1 stoichiometry to produce highly fluorescent resorufin at an excitation and emission wavelengths of 544 nm and 590 nm, respectively.
Membranes from CHO or HEK cells overexpressing hNox enzymes were prepared as previously described (Palicz et al., 2001, J. Biol. Chem, 76, 3090). After resuspension in sonication buffer (11% sucrose, 120 mM NaCl, 1 mM EGTA in PBS, pH 7.4), cells were broken by sonication and centrifuged (200 g, 10 min). The supernatant was layered onto a 17/40% (w/v) discontinuous sucrose gradient and centrifuged (150,000 g for 30 min). Membrane fractions were collected from the 17/40% interface, aliquoted in 10 μl samples and were stored at −80° C. Protein concentration was determined with Bradford reagent. Flavin Adenine Dinucleotide (FAD) (catalog #F6625-500MG), MgCl2 (catalog #M8266-100G), Phosphatidic Acid (PA) (catalog #P3591-50MG) were purchased from Sigma-Aldrich. Horseradish peroxidase (HRP) (catalog #10108090001) was purchased from Roche. NADPH (catalog #A1395, 0500) was purchased from Applichem. Amplex red (AR) (catalog #A22177) was purchased from Invitrogen. 96 well polypropylene and black plates were purchased from Milian (catalog #055529 and #055218, respectively). FLUOstar OPTIMA microplate reader was supplied by BMG Labtech (Germany). Zephyr® Compact Liquid Handling Workstation was supplied by PerkinElmer (Germany).
Assay 1: ROS Production Measurement on hNOX Membranes
All Solutions were placed on ice and protected from light. The final concentration in the 1× hNOX membrane fluorescent assay buffer were PBS pH7, 6 μM FAD, 15 μM PA, 1 mM MgCl2, 12.5 μM AR, 0.02 u/ml, 125 ng membranes, 1.5 μg of cofactors and 30 μM NADPH. The NADPH was dissolved in water at a concentration of 12 mM and was transferred in a metal transfer plate kept at 4° C. The NADPH was added to the assay plate to initiate the reaction just before the measurement.
Serial dilution (1:3, 10 serial dilution) of the compounds was performed in 100% DMSO in 96 well polypropylene plate—Row B—H Column 1-10, Row A, Column 1-10 contained reference compound. Starting concentration was 10^−2 M (10 mM). Final concentration in assay was 10^−4 M (100 μM). Compounds were diluted twice in PBS buffer by transferring 30 μl/well of PBS into 30 μl/well compounds sample in DMSO using Zephyr® Compact Liquid Handling Workstation. Control wells-columns 1 and 12-contained 60 μl DMSO in 50% PBS pH7.
Reaction mixture is dispensed using Zephyr® Compact Liquid Handling Workstation. 90 μl of mix with membrane were dispensed into 96 well black plates—Column 2-11, Column 1 Row A-D, Column 12 Row E-H. 90 μl of control mix were dispensed into assay plate—Column 1 Row E-H, Column 12 Row A-D, which are wells for measuring background signal. 2 μl of compounds were dispensed into each well of assay plate using Zephyr® Compact Liquid Handling Workstation. The reaction mixture with compounds was incubated in assay plates for 20 min at 37° C. in a Titramax microplate incubator with gentle agitation. 10 μl of NADPH is dispensed to the assay plate. Fluorescence reading was recorded with the FLUOstar OPTIMA microplate reader for 10 min at 37° C. (8 cycles, 1 cycle duration 55 sec).
The Table 14 below summarizes the inhibition of NOX activity as measured by the above described assay 1 and expressed by their inhibitory constant calculated by non linear regression analysis using GraphPad Prism Software (GraphPad Software Co., San Diego, CA): […]

Structure (SMILES)	Ki [nM]
COc1cncc(-c2cc3cc(-c4ccc(N5CC(C(=O)O)C5)nc4)[nH]c3cc2Cl)c1 [Example 39, 1-(5-(6-chloro-5-(5-methoxypyridin-3-yl)-1H-indol-2-yl)pyridin-2-yl)azetidine-3-carboxylic acid]	345
COc1cncc(-c2cc3cc(-c4ccc(N5CCS(=O)(=O)CC5)nc4)[nH]c3cc2Cl)c1 [Example 49, 4-(5-(6-chloro-5-(5-methoxypyridin-3-yl)-1H-indol-2-yl)pyridin-2-yl)thiomorpholine 1,1-dioxide]	105
COc1cncc(-c2cc3cc(-c4cnc5c(c4)OCCN5C)[nH]c3cc2Cl)c1 [Example 53, 7-(6-chloro-5-(5-methoxypyridin-3-yl)-1H-indol-2-yl)-4-methyl-3,4-dihydro-2H-pyrido[3,2-b][1,4]oxazine]	23
COc1cncc(-c2cc3cc(-c4ccc(C(O)C5COC5)nc4)[nH]c3cc2Cl)c1 (stereo not shown) [Example 54, (5-(6-chloro-5-(5-methoxypyridin-3-yl)-1H-indol-2-yl)pyridin-2-yl)(oxetan-3-yl)methanol]	415
COc1cncc(-c2cc3cc(-c4ccc(=O)n(C)c4)[nH]c3cc2Cl)c1 [Example 57, 5-(6-chloro-5-(5-methoxypyridin-3-yl)-1H-indol-2-yl)-1-methylpyridin-2(1H)-one]	142
COc1cncc(-c2cc(Cl)c3[nH]c(-c4ccc(N5CCOCC5)nc4)cc3c2)c1 [Example 59]	552
Clc1cncc(-c2cc3cc(-c4ccc(N5CCOCC5)nc4)[nH]c3cc2Cl)c1 [Example 62]	136
COc1cncc(-c2ccc3[nH]c(-c4ccnc(C)c4)cc3c2Cl)c1 [Example 65]	122
COc1cncc(-c2cc3cc(-c4ccnc(C)c4)[nH]c3cc2C)c1 [Example 68]	406
Cc1c(-c2ccncc2)ccc2[nH]c(-c3ccncc3)cc12 [Example 69]	601
Cc1cc(-c2cc3cc(-c4cncc(OCC5CC5)c4)ccc3[nH]2)ccn1 [Example 81]	289
COc1cc(-c2ccc3[nH]c(-c4ccnc(C)c4)cc3c2)cnc1OCc1ccccc1 [Example 83]	657
Clc1cc2[nH]c(-c3ccc(N4CCOCC4)nc3)cc2cc1-c1cncc2sccc12 [Example 89]	103
Fc1ccc2nccc(-c3cc4cc(-c5ccc(N6CCOCC6)nc5)[nH]c4cc3Cl)c2c1 [Example 90]	205
COc1ccc2c(-c3cc4cc(-c5ccc(N6CCOCC6)nc5)[nH]c4cc3Cl)cccc2n1 [Example 92]	770
CN(C)c1cc(-c2cc3cc(-c4ccnc5ccc(F)cc45)ccc3[nH]2)ccn1 [Example 93, 4-(5-(6-fluoroquinolin-4-yl)-1H-indol-2-yl)-N,N-dimethylpyridin-2-amine]	26
c1ccc2c(-c3ccc4[nH]c(-c5ccncc5)cc4c3)ccnc2c1 [Example 101]	300
COc1cncc(-c2ccc3[nH]c(-c4ccncn4)cc3c2)c1 [Example 109]	806
COc1cncc(-c2ccc3c(c2)cc(-c2ccnc(C)c2)n3C(C)C)c1 [Example 111, 1-isopropyl-5-(5-methoxypyridin-3-yl)-2-(2-methylpyridin-4-yl)-1H-indole]	533
COc1cncc(-c2cc3cc(-c4ccc(N5CCOCC5)nc4)n(C)c3cc2Cl)c1 [Example 112]	170
COCCn1c(-c2ccncc2)cc2cc(-c3ccncc3)ccc21 [Example 113, 1-(2-methoxyethyl)-2,5-di(pyridin-4-yl)-1H-indole]	969
COc1cncc(-c2ccc3c(cc(-c4cnc5c(c4)OCCN5C)n3C)c2Cl)c1 [Example 119]	226
